Patent publication US20250281391A1, “EFFERVESCENT COMPOSITION AND METHOD FOR DETERMINING BITTERNESS PERCEPTION” (BAYER HEALTHCARE LLC, priority 2024, published 2025)

Experiment: Electric potential experiment (degree of carbonation, carbon dioxide electrode) as surrogate of bitterness perception
Type: physicochemical
Conditions: Sol. Nos. 26-28, acetaminophen as the API, 100 mL deionized water
Protocol: Formulations comprising the effervescent combination (sodium bicarbonate and citric acid) and molecules/compositions that impart a bitter taste (such as APIs or compositions comprising APIs) can be prepared according to Tables 1-5 below. Exemplary formulations according to the disclosure were made according to the following general procedure. 100 mL of deionized water from MILLI-Q® Q-POD® water purifier (having about 1.9 ppb total organic content) was weighed out in an appropriately sized glass beaker. The ingredients mentioned in Tables 1-5 below were weighed out and added to the glass beaker containing deionized water, and then the mixture was stirred for 15 minutes until the blend is homogenous. Each ingredient was sieved through a mesh 18 strainer ([…] strainer size means particles won't be greater than 0.0394 inches (1000 microns or 1 mm) in diameter) to remove clumps before weighing. The METTLER TOLEDO® XP6035S was used to measure ingredient weight, but any suitable weighing balance may be used.
Various combinations of bitter tasting molecules/compositions (e.g., APIs or compositions comprising APIs) along with the effervescent combination were prepared as solutions (see Sol. Nos. 1-36 in FIG. 1) per the general procedure described in Example 1. For the electric potential experiment, after the solutions were stirred, a carbon dioxide electrode (which measures the degree of carbonation) was dipped in the glass beaker to assess degree of carbonation (unit is electric potential in mV). The THERMO SCIENTIFIC™ ORION™ VSTAR PRO™ 9502BNWP carbon dioxide electrode was used to measure electrical potential (mV). The METTLER TOLEDO SEVENCOMPACT™ PH meter PD-470 was used to measure the pH. […] The carbon dioxide electrode was rinsed with deionized water and cleaned with a lint free tissue in between samples.

- average electric potential (including 0.300 g of the effervescent combination (low end)): 22.24 mV
- average electric potential (including 0.400 g of the effervescent combination): 30.4 mV
- average electric potential (including 0.500 g (high end) of the effervescent combination): 35.67 mV
Compound: CC(=O)Nc1ccc(O)cc1 [acetaminophen]
